# Experimental data from patent publication US5130253A, “DNAs Encoding mosquito oostatic hormones” (University of Florida, priority 1991, dated 1992).
# Where no end group is shown, it is not given here.
# Columns and labels:
# [1] = system: trypsinlike enzymes biosynthesis; experiment: Inhibition of trypsin synthesis after injection; format: in vivo, Stomoxys calcitrans; conditions: 4.77 nmol injected; 24 hours later
# Experimental: (§1) Female insects were injected with 0.5 μl to 1.0 μl hormone solution
# (§2) of analog 1 or saline and analyzed 24 hours later for egg development.
# (§3) The insects were evaluated for the effect of oostatic hormone 24 hours after injecting the hormone by dissecting out the ovaries and measuring the yolk in each follicle, or by dissecting out the midgut and determining trypsin biosynthesis as was described by Borovsky, D. (1988), Arch. Insect Biochem. Physiol. 8:249-260. We believe that we have discovered an effective method that can interfere with the biosynthesis of serine esterases (trypsinlike or chymotrypsinlike enzymes) in the midgut of insects.
# stableflies = experiment: Topical application in DMSO; format: in vivo; conditions: 10 to 20 μg topically in 1 to 10 μl of DMSO; 24 hours after treatment
# Experimental: (§4) (b) Another procedure was to dissolve oostatic hormone analogs (1) or (2) in a solvent that might facilitate transport through the cuticular barrier into hemolymph. Dimethylsulfoxide was used and 10 to 20 μg of (1) or (2) was applied topically to houseflies and stableflies in 1 to 10 μl of DMSO.
# houseflies = experiment: Topical application in DMSO; format: in vivo; conditions: 10 to 20 μg topically in 1 to 10 μl of DMSO; 24 hours after treatment
# Experimental: as §4
# [2] = system: trypsinlike enzymes biosynthesis; experiment: Inhibition of trypsin synthesis after injection; format: in vivo, Ctenocephalides felis (bouche); conditions: 0.477 nmol injected; 24 hours later
# Experimental: as §1, §2, §3
# [3] = system: trypsinlike enzymes biosynthesis; experiment: Inhibition of trypsin synthesis after injection; format: in vivo, Musca domestica; conditions: 4.77 nmol injected; 24 hours later
# Experimental: as §1, §2, §3
# Lutzomyia anthophora = experiment: Inhibition of ovarian development after injection; format: in vivo; conditions: 0.477 nmol injected; 24 hours later
# Experimental: as §1, §2, §3
# Anopheles albimanus = experiment: Inhibition of ovarian development after injection; format: in vivo; conditions: 1.83 nmol injected; 24 hours later
# Experimental: as §1, §2, §3
# Culex quinquefasciatus = experiment: Inhibition of ovarian development after injection; format: in vivo; conditions: 3.6 nmol injected; 24 hours later
# Experimental: as §1, §2, §3
# [4] = system: trypsinlike enzymes biosynthesis; experiment: Inhibition of trypsin synthesis after injection; format: in vivo, Lutzomyia anthophora; conditions: 0.477 nmol injected; 24 hours later
# Experimental: as §1, §2, §3
# Aedes aegypti [5] = experiment: Inhibition of egg (ovarian) development after injection into blood-fed females; format: in vivo; conditions: for Inhibition of egg development / Yolk length: 24 hours; for Effect compared with natural, purified oostatic hormone: injection
# Experimental: as §1, §2, §3
# (§5) (a) Female Aedes aegypti were fed blood on a chicken, lightly anesthetized with ether, and immediately injected with different concentrations (1 to 5 μg; 0.25 to 0.5 μl) of synthetic analogs of oostatic hormone (1 and 2). […] Twenty-four hours after the injection of oostatic hormone analogs, or water as a control, egg development and trypsinlike enzyme biosynthesis was determined (Borovsky, D. (1988), Arch, Ins. Biochem. Physiol. 7:187-210). (See Table 2)
# Groups of female Aedes aegypti were injected with 0.5 to 0.25 μl of
# oostatic hormone analogs, or with 0.5 μl of water as control.
# Aedes aegypti [6] = experiment: Toxicity (mortality) of injected mosquitoes; format: in vivo; conditions: 1 to 5 μg injected in 0.25 to 0.5 μl
# Experimental: as §5
# [7] = system: trypsinlike enzymes biosynthesis; experiment: Inhibition of trypsinlike enzyme biosynthesis in the midgut after injection; format: in vivo, Aedes aegypti; conditions: 2.86 nmol injected; 24 hours later
# Experimental: as §1, §2, §3, §5
# [8] = format: in vitro ADME, mosquito
# Text: The structure of these peptides render them undigestible with known endopeptidases (i.e. proteolytic enzymes like trypsin, pronase, etc.). The peptides were not affected by 1% trifluoroacetic acid and were routinely purified using this acid on HPLC. DNA sequences encoding the peptides of the invention can be used as probes to locate the genes expressing these peptides.
sequence,measurement,setting,value
"YDPAPPPPPP [analog 1, H2 NYDPAP6 COOH]",Inhibition of trypsin synthesis,[1],50%
same,Activity (sterilization through inhibition of trypsin-like enzyme synthesis),stableflies,Some evidence of activity
same,Activity (sterilization through inhibition of trypsin-like enzyme synthesis),houseflies,Some evidence of activity
same,Inhibition of trypsin synthesis,[2],50%
same,Inhibition of trypsin synthesis,[3],85%
same,Inhibition of ovarian development,Lutzomyia anthophora,50%
same,Inhibition of ovarian development,Anopheles albimanus,100%
same,Inhibition of ovarian development,Culex quinquefasciatus,91%
same,Inhibition of trypsin synthesis,[4],30%
same,Inhibition of ovarian development,"Aedes aegypti [5]; 2.86 nmol injected, analyzed 24 hours later",98%
same,Inhibition of egg development,Aedes aegypti [5]; 1.20 μg (1.15 nmol) injected,76%
same,Yolk length,Aedes aegypti [5]; 1.20 μg (1.15 nmol) injected,82 ± 3 μm
same,Inhibition of egg development,Aedes aegypti [5]; 2.44 μg (2.33 nmol) injected,98%
same,Yolk length,Aedes aegypti [5]; 2.44 μg (2.33 nmol) injected,53 ± 3 μm
same,"Effect compared with natural, purified oostatic hormone",Aedes aegypti [5],"same effect as injection of natural, purified oostatic hormone"
same,Toxicity: death of injected mosquitoes,Aedes aegypti [6],none of the injected mosquitoes died
same,Inhibition of trypsin synthesis,[7],86%
same,Loss of activity on standing in mosquito homogenate,[8],without loss of activity
"DYPAPPPPPP [analog 2, H2 NDYPAP6 COOH]",Activity (sterilization through inhibition of trypsin-like enzyme synthesis),stableflies,Some evidence of activity
same,Activity (sterilization through inhibition of trypsin-like enzyme synthesis),houseflies,Some evidence of activity
same,Inhibition of egg development,Aedes aegypti [5]; 0.96 μg (0.92 nmol) injected,62%
same,Yolk length,Aedes aegypti [5]; 0.96 μg (0.92 nmol) injected,102 ± 11 μm
same,Inhibition of egg development,Aedes aegypti [5]; 1.92 μg (1.83 nmol) injected,96%
same,Yolk length,Aedes aegypti [5]; 1.92 μg (1.83 nmol) injected,55 ± 11 μm
same,"Effect compared with natural, purified oostatic hormone",Aedes aegypti [5],"same effect as injection of natural, purified oostatic hormone"
same,Toxicity: death of injected mosquitoes,Aedes aegypti [6],none of the injected mosquitoes died
